Like-named read-outs stand apart in the source and are kept apart here.
Tested on: cell lines from the Cancer Cell Line Encyclopedia (CCLE)
Test: High-throughput cell viability assay, CCLE cell line panel (n = 356)
Type: cell-based, human
Conditions: for IC50: Homo sapiens
Method: Cell lines were partitioned into sensitive and insensitive groups based on compound potency (IC50). […] All other cell lines were obtained from ATCC (American Type Culture Collection), DSMZ (Deutsche Sammlung von Mikroorganismen und Zellkulturen), and HSRRB (Health Science Research Resources Bank) and cultured in RPMI or Dulbecco's modified Eagle's medium plus 10% FBS (Invitrogen, Carlsbad, CA) at 37°C, 5% CO2.

## COc1cc2c(cc1OC(C)C)[C@H](c1ccc(Cl)cc1)N(c1ccc(N(C)C[C@H]3CC[C@H](N4CCNC(=O)C4)CC3)cc1)C(=O)C2 [NVP-CFC218]
read-out: NVP- CFC218 IC50 (µM), cell line MEL-HO, skin, TP53 WT
  IC50: > 8 µM
read-out: NVP- CFC218 IC50 (µM), cell line NCI-H1341, lung, TP53 WT
  IC50: > 8 µM
read-out: NVP- CFC218 IC50 (µM), cell line PE/CA-PJ41 (clone D2), upper_aerodigestive_tract, TP53 MUT
  IC50: > 8 µM
read-out: NVP- CFC218 IC50 (µM), cell line PEER, haem._and_lymphoid_tissue, TP53 MUT
  IC50: > 8 µM
read-out: NVP- CFC218 IC50 (µM), cell line SNG-M, endometrium, TP53 WT
  IC50: > 8 µM
read-out: NVP- CFC218 IC50 (µM), cell line Sq-1, lung, TP53 WT
  IC50: > 8 µM
read-out: NVP- CFC218 IC50 (µM), cell line TE-9, oesophagus, TP53 MUT
  IC50: > 8 µM
read-out: NVP- CFC218 IC50 (µM), cell line WM-88, skin, TP53 WT
  IC50: > 8 µM
Hs 729, TP53 MUT
  Amax: 7.88%
  sensitivity call: insensitive (Sensitivity call for each compound was applied according to a cut-off of 4 µM for IC50 and -50% for Amax)
IGROV1, TP53 MUT
  Amax: -1.82%
  sensitivity call: insensitive (Sensitivity call for each compound was applied according to a cut-off of 4 µM for IC50 and -50% for Amax)
J82, TP53 MUT
  Amax: -2.55%
  sensitivity call: insensitive (Sensitivity call for each compound was applied according to a cut-off of 4 µM for IC50 and -50% for Amax)
JHH-7, TP53 MUT
  Amax: -2.28%
  sensitivity call: insensitive (Sensitivity call for each compound was applied according to a cut-off of 4 µM for IC50 and -50% for Amax)
JHUEM-2, TP53 WT
  Amax: -91.79%
  sensitivity call: sensitive (Sensitivity call for each compound was applied according to a cut-off of 4 µM for IC50 and -50% for Amax)
JMSU-1, TP53 MUT
  Amax: 2.12%
  sensitivity call: insensitive (Sensitivity call for each compound was applied according to a cut-off of 4 µM for IC50 and -50% for Amax)
KE-39, TP53 MUT
  Amax: -5.22%
  sensitivity call: insensitive (Sensitivity call for each compound was applied according to a cut-off of 4 µM for IC50 and -50% for Amax)
KE-97, TP53 WT
  Amax: -79.42%
  sensitivity call: sensitive (Sensitivity call for each compound was applied according to a cut-off of 4 µM for IC50 and -50% for Amax)
KMM-1, TP53 MUT
  Amax: -27.14%
  sensitivity call: insensitive (Sensitivity call for each compound was applied according to a cut-off of 4 µM for IC50 and -50% for Amax)
KNS-60, TP53 MUT
  Amax: -1.47%
  sensitivity call: insensitive (Sensitivity call for each compound was applied according to a cut-off of 4 µM for IC50 and -50% for Amax)
KP-N-SI9s, TP53 WT
  Amax: -92.10%
  sensitivity call: sensitive (Sensitivity call for each compound was applied according to a cut-off of 4 µM for IC50 and -50% for Amax)
KU812, TP53 MUT
  Amax: 19.95%
  sensitivity call: insensitive (Sensitivity call for each compound was applied according to a cut-off of 4 µM for IC50 and -50% for Amax)
KYSE-30, TP53 MUT
  Amax: -3.88%
  sensitivity call: insensitive (Sensitivity call for each compound was applied according to a cut-off of 4 µM for IC50 and -50% for Amax)
KYSE-70, TP53 MUT
  Amax: -0.20%
  sensitivity call: insensitive (Sensitivity call for each compound was applied according to a cut-off of 4 µM for IC50 and -50% for Amax)
KYSE-140, TP53 MUT
  Amax: -19.56%
  sensitivity call: insensitive (Sensitivity call for each compound was applied according to a cut-off of 4 µM for IC50 and -50% for Amax)
KYSE-180, TP53 MUT
  Amax: -30.58%
  sensitivity call: insensitive (Sensitivity call for each compound was applied according to a cut-off of 4 µM for IC50 and -50% for Amax)
LCLC-103H, TP53 MUT
  Amax: -1.79%
  sensitivity call: insensitive (Sensitivity call for each compound was applied according to a cut-off of 4 µM for IC50 and -50% for Amax)
LK-2, TP53 MUT
  Amax: -3.65%
  sensitivity call: insensitive (Sensitivity call for each compound was applied according to a cut-off of 4 µM for IC50 and -50% for Amax)
LN-18, TP53 MUT
  Amax: -16.71%
  sensitivity call: insensitive (Sensitivity call for each compound was applied according to a cut-off of 4 µM for IC50 and -50% for Amax)
LOU-NH91, TP53 MUT
  Amax: 2.89%
  sensitivity call: insensitive (Sensitivity call for each compound was applied according to a cut-off of 4 µM for IC50 and -50% for Amax)
LOX IMVI, TP53 WT
  Amax: -48.25%
  sensitivity call: insensitive (Sensitivity call for each compound was applied according to a cut-off of 4 µM for IC50 and -50% for Amax)
LU65, TP53 MUT
  Amax: -1.36%
  sensitivity call: insensitive (Sensitivity call for each compound was applied according to a cut-off of 4 µM for IC50 and -50% for Amax)
MEG-01, TP53 MUT
  Amax: 0.30%
  sensitivity call: insensitive (Sensitivity call for each compound was applied according to a cut-off of 4 µM for IC50 and -50% for Amax)
MKN74, TP53 MUT
  Amax: 2.29%
  sensitivity call: insensitive (Sensitivity call for each compound was applied according to a cut-off of 4 µM for IC50 and -50% for Amax)
MOG-G-UVW, TP53 WT
  Amax: 3.49%
  sensitivity call: insensitive (Sensitivity call for each compound was applied according to a cut-off of 4 µM for IC50 and -50% for Amax)
MOLM-16, TP53 MUT
  Amax: 12.84%
  sensitivity call: insensitive (Sensitivity call for each compound was applied according to a cut-off of 4 µM for IC50 and -50% for Amax)
MeWo, TP53 MUT
  Amax: 0.14%
  sensitivity call: insensitive (Sensitivity call for each compound was applied according to a cut-off of 4 µM for IC50 and -50% for Amax)
NCI-H23, TP53 MUT
  Amax: -1.09%
  sensitivity call: insensitive (Sensitivity call for each compound was applied according to a cut-off of 4 µM for IC50 and -50% for Amax)
NCI-H1355, TP53 MUT
  Amax: -28.98%
  sensitivity call: insensitive (Sensitivity call for each compound was applied according to a cut-off of 4 µM for IC50 and -50% for Amax)
NCI-H1648, TP53 MUT
  Amax: -2.43%
  sensitivity call: insensitive (Sensitivity call for each compound was applied according to a cut-off of 4 µM for IC50 and -50% for Amax)
NCI-H1651, TP53 MUT
  Amax: -2.57%
  sensitivity call: insensitive (Sensitivity call for each compound was applied according to a cut-off of 4 µM for IC50 and -50% for Amax)
NCI-H2009, TP53 MUT
  Amax: -6.28%
  sensitivity call: insensitive (Sensitivity call for each compound was applied according to a cut-off of 4 µM for IC50 and -50% for Amax)
NCI-H2110, TP53 MUT
  Amax: -4.78%
  sensitivity call: insensitive (Sensitivity call for each compound was applied according to a cut-off of 4 µM for IC50 and -50% for Amax)
NCI-H2122, TP53 MUT
  Amax: -89.07%
  sensitivity call: sensitive (Sensitivity call for each compound was applied according to a cut-off of 4 µM for IC50 and -50% for Amax)
NCI-H2444, TP53 MUT
  Amax: -4.64%
  sensitivity call: insensitive (Sensitivity call for each compound was applied according to a cut-off of 4 µM for IC50 and -50% for Amax)
NCI-H2452, TP53 WT
  Amax: -0.68%
  sensitivity call: insensitive (Sensitivity call for each compound was applied according to a cut-off of 4 µM for IC50 and -50% for Amax)
NCO2, TP53 MUT
  Amax: -1.52%
  sensitivity call: insensitive (Sensitivity call for each compound was applied according to a cut-off of 4 µM for IC50 and -50% for Amax)
OCI-M1, TP53 MUT
  Amax: -1.98%
  sensitivity call: insensitive (Sensitivity call for each compound was applied according to a cut-off of 4 µM for IC50 and -50% for Amax)
OE33, TP53 MUT
  Amax: -2.82%
  sensitivity call: insensitive (Sensitivity call for each compound was applied according to a cut-off of 4 µM for IC50 and -50% for Amax)

Reference: article PMC4468608, “A distinct p53 target gene set predicts for response to the selective p53–HDM2 inhibitor NVP-CGM097” (eLife, 2015)
